Measurements from article PMC3503826, “Limits of Ligand Selectivity from Docking to Models: In Silico Screening for A1 Adenosine Receptor Antagonists” (PLoS ONE, 2012).

Columns and labels:
[1] = biological target: bovine A1AR; parameters: method as in PMID 21080692; conditions: reference compound; cited from earlier work
[2] = biological target: T1, human A1AR (Homo sapiens, UniProt P30542); test: Radioligand binding ([3H]DPCPX), membranes of CHO cells expressing hA1AR; conditions: for inhibition at 10 µM: percent inhibition at 10 µM compound, [3H]DPCPX, read-out: A1 % Inhibition; for inhibition at 10 µM / Ki: hA1AR, CHO cell membranes; for Ki: [3H]DPCPX 0.5 nM, mean ± standard error, read-out: A1 Ki
T1 construct: expressed in transfected cells
T1 sequence (P30542 1-326): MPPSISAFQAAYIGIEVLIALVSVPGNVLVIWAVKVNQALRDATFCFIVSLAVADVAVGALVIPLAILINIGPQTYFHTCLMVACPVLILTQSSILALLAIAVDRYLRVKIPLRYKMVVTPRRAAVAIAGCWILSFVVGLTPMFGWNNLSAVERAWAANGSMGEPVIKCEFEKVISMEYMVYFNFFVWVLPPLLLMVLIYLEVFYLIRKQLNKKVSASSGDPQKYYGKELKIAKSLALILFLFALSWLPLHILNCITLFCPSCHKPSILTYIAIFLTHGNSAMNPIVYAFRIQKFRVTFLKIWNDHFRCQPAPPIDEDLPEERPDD
Description: (§1) Binding affinity for three human AR (hAR) subtypes was measured using standard radioligand assays and membrane preparations from Chinese hamster ovary (CHO) cells (A1 and A3) or human embryonic kidney (HEK) 293 cells (A2A) stably expressing a hAR subtype (Table 1).
(§2) Receptor binding assays: [^3H]8-Cyclopentyl-1,3-dipropylxanthine ([^3H]DPCPX, 120 Ci/mmol) and [^125I]N ^6-(4-amino-3-iodobenzyl)adenosine-5'-N-methyluronamide ([^125I]I-AB-MECA, 2200 Ci/mmol) were purchased from Perkin–Elmer Life and Analytical Science (Boston, MA). [^3H](2-[p-(2-Carboxyethyl)phenyl-ethylamino]-5'-N-ethylcarboxamido-adenosine) ([^3H]CGS21680, 39 Ci/mmol) was purchased from American Radiolabeled Chemicals, Inc. (St. Louis, MO). Other pharmacological reagents were purchased from Tocris-R&D Systems, Inc. (Minneapolis, MN). Test compounds were prepared as 5 mM stock solutions in DMSO and stored frozen.
(§3) Cell Culture and Membrane Preparation: CHO cells stably expressing the recombinant hA1 and hA3ARs, and HEK-293 cells stably expressing the hA2AAR were cultured in Dulbecco’s modified Eagle medium (DMEM) and F12 (1∶1) supplemented with 10% fetal bovine serum, 100 units/mL penicillin, 100 µg/mL streptomycin, and 2 µmol/mL glutamine. In addition, 800 µg/mL geneticin was added to the A2A media, while 500 µg/mL hygromycin was added to the A1 and A3 media. After harvesting, cells were homogenized and suspended in PBS. Cells were then centrifuged at 240 g for 5 min, and the pellet was resuspended in 50 mM Tris-HCl buffer (pH 7.5) containing 10 mM MgCl2. The suspension was homogenized and was then ultra-centrifuged at 14,330 g for 30 min at 4°C. The resultant pellets were resuspended in Tris buffer and incubated with adenosine deaminase (3 units/mL) for 30 min at 37°C. The suspension was homogenized with an electric homogenizer for 10 sec, pipetted into 1 mL vials and then stored at -80°C until the binding experiments. The protein concentration was measured using the BCA Protein Assay Kit from Pierce Biotechnology, Inc. (Rockford, IL).
(§4) Binding assays: Standard radioligand binding assays for A1, A2A, and A3ARs were used [37]–[39]. Into each tube in the binding assay was added 50 µL of increasing concentrations of the test ligand in Tris-HCl buffer (50 mM, pH 7.5) containing 10 mM MgCl2, 50 µL of the appropriate agonist radioligand, and finally 100 µL of membrane suspension. For the A1AR (22 µg of protein/tube) the radioligand used was [^3H]DPCPX (final concentration of 0.5 nM). For the A2AAR (20 µg/tube) the radioligand used was [^3H]CGS21680 (final concentration 10 nM). For the A3AR (21 µg/tube) the radioligand used was [^125I]I-AB-MECA (final concentration 0.2 nM). Nonspecific binding was determined using a final concentration of 10 µM NECA diluted with the buffer. The mixtures were incubated at 25°C for 60 min in a shaking water bath. Binding reactions were terminated by filtration through Brandel GF/B filters under a reduced pressure using a M-24 cell harvester (Brandel, Gaithersburg, MD). Filters were washed three times with 3 mL of 50 mM ice-cold Tris-HCl buffer (pH 7.5). Filters for A1 and A2AAR binding were placed in scintillation vials containing 5 mL of Hydrofluor scintillation buffer and counted using a Perkin Elmer Liquid Scintillation Analyzer (Tri-Carb 2810TR). Filters for A3AR binding were counted using a Packard Cobra II γ-counter.
(§5) Data analysis: Binding and functional parameters were calculated using Prism 5.0 software (GraphPAD, San Diego, CA, USA). IC50 values obtained from binding inhibition curves were converted to Ki values using the Cheng-Prusoff equation [40]. Data were expressed as mean ± standard error or percentage inhibition at 10 µM.

[3] = biological target: T2, human A3AR (Homo sapiens, UniProt P0DMS8); test: Radioligand binding ([125I]I-AB-MECA), membranes of CHO cells expressing hA3AR; conditions: for inhibition at 10 µM: percent inhibition at 10 µM compound, [125I]I-AB-MECA, read-out: A3 % Inhibition; for inhibition at 10 µM / Ki: hA3AR, CHO cell membranes; for Ki: [125I]I-AB-MECA 0.2 nM, mean ± standard error, read-out: A3 Ki
T2 construct: expressed in transfected cells
T2 sequence (P0DMS8 1-318): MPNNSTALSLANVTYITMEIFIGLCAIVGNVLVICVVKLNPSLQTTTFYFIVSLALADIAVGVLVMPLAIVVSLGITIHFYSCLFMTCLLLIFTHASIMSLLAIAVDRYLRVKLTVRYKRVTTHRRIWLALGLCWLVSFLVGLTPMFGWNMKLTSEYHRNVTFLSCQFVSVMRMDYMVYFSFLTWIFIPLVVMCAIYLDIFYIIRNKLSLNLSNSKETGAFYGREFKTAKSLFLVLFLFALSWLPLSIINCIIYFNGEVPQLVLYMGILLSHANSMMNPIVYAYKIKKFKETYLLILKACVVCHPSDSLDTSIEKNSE
Description: as §1, §2, §3, §4, §5

[4] = biological target: T3, human A2AAR (Homo sapiens, UniProt P29274); test: Radioligand binding ([3H]CGS21680), membranes of HEK293 cells expressing hA2AAR; conditions: HEK293 cell membranes; for Ki: [3H]CGS21680 10 nM, mean ± standard error, read-out: A2A Ki; for inhibition at 10 µM: percent inhibition at 10 µM compound, [3H]CGS21680, read-out: A2A % Inhibition
T3 construct: expressed in transfected cells
Description: as §1, §2, §3, §4, §5

T3 sequence (P29274 whole entry): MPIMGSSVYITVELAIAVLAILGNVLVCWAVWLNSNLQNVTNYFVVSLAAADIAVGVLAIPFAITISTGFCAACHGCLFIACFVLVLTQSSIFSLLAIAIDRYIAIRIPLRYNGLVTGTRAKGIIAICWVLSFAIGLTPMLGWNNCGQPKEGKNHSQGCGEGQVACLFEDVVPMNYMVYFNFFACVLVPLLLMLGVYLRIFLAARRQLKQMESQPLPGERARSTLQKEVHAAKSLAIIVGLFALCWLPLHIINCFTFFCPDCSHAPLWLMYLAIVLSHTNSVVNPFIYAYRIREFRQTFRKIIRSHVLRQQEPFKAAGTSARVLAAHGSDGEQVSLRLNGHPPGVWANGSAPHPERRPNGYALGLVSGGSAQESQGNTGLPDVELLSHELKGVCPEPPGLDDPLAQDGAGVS

inhibition at 10 µM [2] [%]	Ki [4] [µM]	Ki [2] [µM]	Ki [3] [µM]	Structure (SMILES)	other results
				OC1CCC(Nc2nc(-c3ccccc3)nc3c2nnn3Cc2ccccc2)CC1 (stereo not drawn) [Compound 5, 4-[(3-benzyl-5-phenyl-triazolo[4,5-e]pyrimidin-7-yl)amino]cyclohexan-1-ol]	Ki [1]: 0.003 µM
17 ± 9	3.31 ± 0.27			CC(NC(=O)c1ccco1)C(=O)Nc1nc(-c2ccccn2)cs1 (stereo not drawn) [Compound 7]	inhibition at 10 µM [3]: 43 ± 3%
		3.46 ± 0.42		O=C(Nc1nc(-c2ccccn2)cs1)c1cccc(-n2cnnn2)c1 [Compound 8]	Selectivity for A1AR over A2AAR and A3AR ([2]; by the criteria used in this screen (>50% inhibition at 10 µM)): selective for the A1AR; inhibition at 10 µM [3]: 35 ± 4%; inhibition at 10 µM [4]: 11 ± 6%
2 ± 2	2.36 ± 0.26		4.86 ± 0.33	Cc1ccccc1Nc1nc(N)nc(COc2ccccc2C#N)n1 [Compound 9]	
9 ± 9			9.06 ± 1.1	O=C(Nc1nc(-c2ccccn2)cs1)c1cc2c(F)cccc2[nH]1 [Compound 10]	inhibition at 10 µM [4]: 37 ± 1%
13 ± 9			13.7	CCCn1nc(C(=O)Nc2nc(-c3ccccn3)cs2)ccc1=O [Compound 11]	inhibition at 10 µM [4]: 35 ± 3%
28 ± 9	3.65 ± 0.87		2.78 ± 0.92	COc1ccc(OCC(=O)Nc2nc(-c3ccccn3)cs2)cc1 [Compound 12]	
10 ± 10	10.9		3.48 ± 1.1	COc1cccc(/C=C/C(=O)Nc2nc(-c3ccccn3)cs2)c1 [Compound 13]	
19 ± 10	6.54 ± 1.09			Cc1cccc2c(=O)[nH]c(CSc3n[nH]c(C(C)C)n3)nc12 [Compound 14]	inhibition at 10 µM [3]: 49 ± 1%
20 ± 4			9.33 ± 1.8	Nc1nc(COC(=O)c2cc3cc(F)ccc3[nH]2)nc2ccccc12 [Compound 15]	inhibition at 10 µM [4]: 5 ± 3%
13 ± 2			13.4	CN(C(=O)Cc1csc(NC(=O)C2CC2)n1)c1ccccc1 [Compound 16]	inhibition at 10 µM [4]: 36 ± 0.2%
	0.74 ± 0.39	0.4 ± 0.06		CCOc1cccc2cc(C(=O)NCc3ccccn3)c(=N)oc12 [Compound 17]	inhibition at 10 µM [3]: 48 ± 7%
	2.13 ± 0.72	3.43 ± 1.03	1.76 ± 0.21	Cn1nnnc1SCC(=O)Nc1nc(-c2cccs2)cs1 [Compound 18]	
	6.66 ± 0.86	3.34 ± 0.56		Cn1c(=O)c2[nH]c(NCC3CCCO3)nc2n(-c2ccccc2)c1=O (stereo not drawn) [Compound 19]	inhibition at 10 µM [3]: 23 ± 3%
45	3.56 ± 0.51		1.52 ± 0.36	N#Cc1cccc(C(=O)Nc2nc(-c3ccccn3)cs2)c1 [Compound 20]	
	1.34 ± 0.31	0.98 ± 0.09	0.205 ± 0.03	CCS(=O)(=O)Nc1cccc(C(=O)Nc2nc3ccccc3[nH]2)c1 [Compound 21]	
36	9.3 ± 0.7			CCN(Cc1nc2ccccc2c(=O)[nH]1)C(=O)c1cc(C2CC2)[nH]n1 [Compound 22]	inhibition at 10 µM [3]: 42 ± 6%
	3.78 ± 0.83	1.22 ± 0.34	0.07 ± 0.02	O=C(Nc1nc(-c2cccc(F)c2)cs1)c1ccc2[nH]nnc2c1 [Compound 23]	
33 ± 9	6.14 ± 1.69		0.04 ± 0.006	Nc1nc(Cn2nnc(-c3ccccc3)n2)nc(Nc2ccccc2)n1 [Compound 24]	Selectivity for A3AR ([3]; judged from Ki at the three hAR subtypes): slightly selective
	1.45 ± 0.17	2.93 ± 0.48	0.55 ± 0.07	C=CCOc1ccccc1/C=N/Nc1nc2ccccc2c(=O)n1C [Compound 25]	
	1.37 ± 0.47	3.94 ± 0.39	3.85 ± 0.59	Cc1cc(C)c2c(=O)[nH]c(SCC(=O)Nc3cc(C)on3)nc2n1 [Compound 26]	
